Data taken from paper PMC10379331, “Identification of a Putative SARS-CoV-2 Main Protease Inhibitor through In Silico Screening of Self-Designed Molecular Library” (International Journal of Molecular Sciences, 2023).
Where two headings read alike, the source gives them in different places.

Molecular target: M^pro protein (SARS-CoV-2 main protease) (Severe acute respiratory syndrome coronavirus 2, UniProt P0DTD1)
Test: FRET-based in vitro enzymatic inhibition assay
Type: biochemical
[1] = 0.2 μM M^pro, 20 μM substrate MCA-[…]-Lys(Dnp)-Lys-NH2, 30 min preincubation at 37 °C, read-out: IC50 Value

SMILES | IC50 [1] | IC50
Nc1n[nH]c2cc(-c3cn([C@@H]4CN[C@H](C(=O)Nc5ccc(Cl)c(C(F)(F)F)c5)C4)nn3)ccc12 [Compound V291] | 2.77 ± 0.56 µM | –
CCC(=O)Nc1ccc(-c2cccc(C(=O)N[C@@H]3CN[C@H](C(=O)Nc4ccc(Cl)c(C(F)(F)F)c4)C3)c2)cn1 [Compound V139] | > 20 µM | –
CC(C)(C)OCC(NC(=O)c1ccc(-c2cncc(C(=O)NC3CC3)c2)cc1)C(=O)Nc1ccc(Cl)c(C(F)(F)F)c1 (stereo not shown) [Compound V243] | > 20 µM | –
CCN(CC)C(=O)c1cncc(-c2cccc(C(=O)N[C@@H](C(=O)Nc3ccc(Cl)c(C(F)(F)F)c3)C(C)(C)C)c2)c1 [Compound V226] | > 20 µM | –
Nc1nc2cc(-c3cn([C@@H]4CN[C@H](C(=O)Nc5ccc(Cl)c(C(F)(F)F)c5)C4)nn3)cnc2s1 [Compound V304] | > 20 µM | –
CC(=O)Nc1ccc(-c2ccc(C(=O)N[C@H](C(=O)Nc3ccc(Cl)c(C(F)(F)F)c3)C(C)(C)C)cc2)cn1 [Compound V231] | > 20 µM | –
O=C(c1ccc(-c2cc(Nc3ccc(Cl)cc3Cl)ncn2)cc1)N1CCN(C(=O)c2ccccc2F)CC1 [Compound V159] | > 20 µM | –
Nc1n[nH]c2cccc(-c3ccc(C(=O)N4CCN(C(=O)c5cccc(F)c5)CC4)cc3)c12 [Compound V205] | > 20 µM | –
Nc1n[nH]c2cccc(-c3ccc(C(=O)NCCNC(=O)c4ccc(Br)cc4)cc3)c12 [Compound V111] | > 20 µM | –
Cc1cn(-c2cc(NC(=O)c3ccc(C)c(Nc4nccc(-c5cccnc5)n4)c3)cc(C(F)(F)F)c2)cn1 [Nilotinib, reference compound] | – | 19.9 ± 1.27 µM
